Test results published in patent US11530181B2, “IL-6 inhibitors and methods of treatment” (University of Florida Research Foundation, Incorporated, priority 2018, dated 2022).

What was measured:
gp130 = target: T1, gp130 (Homo sapiens, UniProt P40189); assay: Drug Affinity Responsive Target Stability (DARTS) assay in SUM159 lysates; type: binding
T1 construct: endogenous in cells; host or cells: SUM159 human breast cancer cells (lysate)
Procedure: Human SUM159 breast cancer cells were lysed in cold radioimmunoprecipitation assay (RIPA) lysis buffer containing proteasome inhibitor cocktail and phosphatase inhibitor cocktail. Then lysates were incubated with escalating concentrations (10-1000 μM) of LLM418 or DMSO control at room temperature for 1 h. Proteolysis was followed by adding protease pronase solution at a ratio of 1 mg of pronase to 1000 mg (or 2000 mg) of lysate protein for 30 min, 20 min or 15 min at room temperature. To stop proteolysis, 4×SDS sample loading buffer was added at 1:3 ratio to each sample and boiled at 95° C. for 10 min. The resulted protein samples were separated by 8% SDS-PAGE gel and analyzed by western blotting. The DARTS assay is a method for studying the specific protein-ligand binding interactions. It is based on the principle that the target protein structure might be stabilized and become less susceptible to proteolysis by proteases upon drug binding [Lomenick B, Jung G, Wohlschlegel J, et al. Target identification using drug affinity responsive target stability (DARTS). Curr Protoc Chem Biol 2011, 3, 163-180; Lomenick B, Olsen R, Huang J. Identification of direct protein targets of small molecules. ACS Chem Biol. 2011, 6, 34-46]. It can be used to find the targeting protein of a small molecule by running SDS-gel without purifying any specific protein. […]

[1] = tested on: Capan-1 pancreatic cancer cell line; assay: MTT cell viability assay, Capan-1; type: cell-based; conditions: Homo sapiens
Procedure: Human breast cancer cell lines MCF7, MDA-MB-231 and SUM159 were maintained in Dulbecco's modified Eagle medium (DMEM). Human pancreatic cancer cell line BxPC-3 was maintained in RPMI 1640 medium. Human pancreatic cancer cell line Capan-1 was maintained in Iscove's Modified Dulbecco's Medium (IMEM). All media were supplemented with 10% FBS and 1% penicillin/streptomycin, and cells were incubated in a humidified 37° C. incubator with 5% CO2. PE/CA-PJ49 cell line was purchased from external sources and maintained according to manufacturer's protocol.
Cell viability was evaluated by using the MTT assay in triple replicates in one experiment and repeated for three times. Cancer cells were seeded in 96-well plates at a density of 3,000 cells per well. The cells were incubated at 37° C. for a period of 24 hours. Escalating concentrations of IL-6/gp130 inhibitors were added in triplicate to the plates in the presence of 10% FBS. After incubation for 48 or 72 hours, a stock solution of MTT (0.5 mg/ml) was then added to each well containing the treated cells, followed by incubation at 37° C. for 3 h. After removal of medium, the MTT dye was dissolved with spectrophotometric grade DMSO and the absorbance was read at 570 nm. The IC50 value is determined by interpolation based on the absorbance value halfway between positive and negative controls. […]

[2] = tested on: STAT3 phosphorylation in BxPC-3 cells; assay: Western blot, STAT3 phosphorylation in BxPC-3 (IL-6 autocrine); type: cell-based, human
Procedure: (§1) Cells were harvested and lysed in cold radioimmunoprecipitation assay (RIPA) lysis buffer containing proteasome inhibitor cocktail and phosphatase inhibitor cocktail. The protein concentrations were determined using the BCA Protein Assay kit. After adding the loading buffer and boiling at 95° C. for 10 minutes, equivalent amounts of proteins were loaded on and separated by SDS-PAGE, and then were transferred to PVDF membranes. Membranes were probed with primary antibodies (1:1000) against phospho-STAT3 (Tyr705), STAT3, phospho-STAT1 (Tyr701), STAT1, phospho-STAT6 (Tyr 641), STAT6, and GAPDH, respectively, and horseradish peroxidase (HRP)-conjugated secondary antibody (1:10000) (Cell Signaling Technology, Beverly, Mass.). Membranes were analyzed using Enhanced Chemiluminescence Plus reagents and either scanned with the Storm Scanner (Amersham Pharmacia Biotech, Inc., Piscataway, N.J.) or imaged with ChemiDoc MP imaging system (Bio-Rad, Hercules, Calif.). For cytokine induction of STAT3 phosphorylation, MCF-7 breast cancer cells were seeded in 10 cm plates (1 million cells per plate) and allowed to adhere overnight followed by serum-starvation. […] The cells were harvested after 30 minutes and analyzed by Western blot.
BxPC-3 and SUM159 cells were seeded in 10 cm plates (1 million cells per plate) and allowed to adhere overnight. […] Then cells were harvested and analyzed by western blotting.

[3] = tested on: CT-1 induced STAT3 phosphorylation; assay: Western blot, CT-1 induced STAT3 phosphorylation in MCF7; type: cell-based, human; conditions: MCF7, 15 μM, time dependent
Procedure: as §1, with “Calif.).” for “Calif.). For cytokine induction of STAT3 phosphorylation, MCF-7 breast cancer cells were seeded in 10 cm plates (1 million cells per plate) and allowed to adhere overnight followed by serum-starvation.”
(§2) MCF7 breast cancer cells were seeded in 10 cm plates (1 million cells per plate) and allowed to adhere overnight. […] The cells were harvested after 30 minutes and analyzed by western blotting.

[4] = tested on: CNTF induced STAT3 phosphorylation; assay: Western blot, CNTF induced STAT3 phosphorylation in MCF7; type: cell-based, human; conditions: MCF7, 15 μM, 2, 3 and 4 hours
Procedure: as §1, with “Calif.).” for “Calif.). For cytokine induction of STAT3 phosphorylation, MCF-7 breast cancer cells were seeded in 10 cm plates (1 million cells per plate) and allowed to adhere overnight followed by serum-starvation.”
as §2

T1 sequence (P40189 23-918): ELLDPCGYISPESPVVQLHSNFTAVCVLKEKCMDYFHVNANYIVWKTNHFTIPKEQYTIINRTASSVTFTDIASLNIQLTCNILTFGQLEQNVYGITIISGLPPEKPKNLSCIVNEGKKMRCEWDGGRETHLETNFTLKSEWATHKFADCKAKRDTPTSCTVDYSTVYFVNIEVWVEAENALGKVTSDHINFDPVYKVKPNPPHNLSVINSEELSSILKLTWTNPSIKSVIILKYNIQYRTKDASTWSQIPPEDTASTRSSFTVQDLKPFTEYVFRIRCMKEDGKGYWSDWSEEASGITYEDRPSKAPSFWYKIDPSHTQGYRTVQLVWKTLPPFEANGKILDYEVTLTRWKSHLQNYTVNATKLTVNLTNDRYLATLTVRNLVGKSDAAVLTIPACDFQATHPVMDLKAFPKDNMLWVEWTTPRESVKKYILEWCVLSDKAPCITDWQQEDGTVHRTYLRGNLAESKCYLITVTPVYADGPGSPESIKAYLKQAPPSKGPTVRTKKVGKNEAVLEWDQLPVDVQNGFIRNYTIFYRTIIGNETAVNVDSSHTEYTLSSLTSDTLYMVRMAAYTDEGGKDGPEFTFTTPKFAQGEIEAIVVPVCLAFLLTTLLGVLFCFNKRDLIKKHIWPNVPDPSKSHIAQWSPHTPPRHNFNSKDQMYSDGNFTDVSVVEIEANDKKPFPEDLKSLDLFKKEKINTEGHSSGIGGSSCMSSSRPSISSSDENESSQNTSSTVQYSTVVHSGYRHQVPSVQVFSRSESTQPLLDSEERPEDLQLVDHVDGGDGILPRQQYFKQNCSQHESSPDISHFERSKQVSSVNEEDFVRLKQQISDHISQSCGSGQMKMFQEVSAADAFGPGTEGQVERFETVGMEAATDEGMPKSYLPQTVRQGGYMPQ

Compound | abundance of gp130 compared with the no drug control (gp130; 100 and 1000 μM) | abundance of the gp130 band (protection from proteolysis) (gp130; SUM159 lysates, 10-1000 μM, pronase:protein=1:2000, 15 min) | IC50 [1] [µM] | inhibition of STAT3 phosphorylation ([2]; BxPC-3, 20 μM) | inhibition of STAT3 phosphorylation ([2]; BxPC-3, 5-20 μM, 16 h) | CT-1 induced STAT3 phosphorylation [3] | CNTF induced STAT3 phosphorylation [4]
O=C(Nc1ccccc1-c1ccn[nH]1)c1ccc(OCCN2CCCCC2)cc1 [LLM418, N-(2-(1H-pyrazol-5-yl)phenyl)-4-(2-(piperidin-1-yl)ethoxy)benzamide] | increased significantly | increased with an increasing dose |  |  |  |  | 
O=C(Nc1cc(F)ccc1-n1cccc1)c1ccc(OCCCN2CCCCC2)cc1 [LLM4, N-(5-fluoro-2-(1H-pyrrol-1-yl)phenyl)-4-(3-(piperidin-1-yl)propoxy)benzamide] |  |  | 35.1 | almost complete inhibition | inhibited STAT3 phosphorylation in BxPC-3 cells in a dose dependent manner | minor influence | remain intact
